# Reference: ChEMBL document CHEMBL1150605, “Isolation of a new mycalolide from the marine sponge Mycale izuensis” (J Nat Prod, 2002)
# Test system: HeLa
# Assay: Cytotoxicity against human HeLa cells
# Format: functional, cell-based
structure (smiles),measurement,value
"CO[C@H]1C/C=C/c2nc(co2)-c2nc(co2)-c2nc(co2)[C@@H](OC)[C@@H](C)C(=O)/C=C/C[C@H](O)CC(=O)O[C@@H](C[C@H](OC)[C@@H](C)CC[C@@H](O)[C@@H](C)[C@H](O)[C@H](C)/C=C/N(C)C=O)[C@@H]1C [30,32-DIHYDROXYMYCALOLIDE A]",IC50,2.6 ng/mL
